Experimental data from ChEMBL document CHEMBL1158020, “Antitumor agents. 190. Absolute stereochemistry of the cytotoxic germacranolides, tomenphantins A and B, from Elephantopus tomentosus” (1999).
Values after ≈ are worked out from the molar mass of the structure shown.

Tested on: KB
Experiment: Cytotoxicity against human KB cells
Type: functional
Settings: read-out: ED50 (the source's name)

Row | Compound | EC50
1 | C=C(C)C(=O)O[C@H]1C/C(CO)=C/CC[C@@]2(C)O[C@H]2[C@H]2OC(=O)C(=C)[C@@H]21 [TOMENPHANTIN A] | 3 µg/mL (≈ 8.61 µM)
2 | C=C(C)C(=O)O[C@H]1C/C(C=O)=C/CC[C@@]2(C)O[C@H]2[C@H]2OC(=O)C(=C)[C@@H]21 [TOMENPHANTIN B] | 2.7 µg/mL (≈ 7.79 µM)
